According to BindingDB's records for doi:10.1124/jpet.106.103382 (Wyeth Research, 2006):

Legend:
Adenosine receptor A1 = target: T1, Adenosine receptor A1 (Homo sapiens, UniProt P30542)
T1 sequence (P30542 whole entry): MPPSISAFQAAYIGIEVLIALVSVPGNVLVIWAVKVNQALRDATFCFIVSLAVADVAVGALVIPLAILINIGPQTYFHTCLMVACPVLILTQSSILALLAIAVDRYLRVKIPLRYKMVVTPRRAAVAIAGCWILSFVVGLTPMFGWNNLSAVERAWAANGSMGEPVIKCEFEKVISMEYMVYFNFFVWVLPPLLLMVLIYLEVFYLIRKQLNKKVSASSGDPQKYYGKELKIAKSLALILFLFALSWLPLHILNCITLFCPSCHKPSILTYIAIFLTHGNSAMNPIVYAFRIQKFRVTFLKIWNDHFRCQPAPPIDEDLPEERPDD

Cannabinoid receptor 2 = Cannabinoid receptor 2 (Homo sapiens, UniProt P34972)
Cannabinoid receptor 2, sequence (P34972 whole entry): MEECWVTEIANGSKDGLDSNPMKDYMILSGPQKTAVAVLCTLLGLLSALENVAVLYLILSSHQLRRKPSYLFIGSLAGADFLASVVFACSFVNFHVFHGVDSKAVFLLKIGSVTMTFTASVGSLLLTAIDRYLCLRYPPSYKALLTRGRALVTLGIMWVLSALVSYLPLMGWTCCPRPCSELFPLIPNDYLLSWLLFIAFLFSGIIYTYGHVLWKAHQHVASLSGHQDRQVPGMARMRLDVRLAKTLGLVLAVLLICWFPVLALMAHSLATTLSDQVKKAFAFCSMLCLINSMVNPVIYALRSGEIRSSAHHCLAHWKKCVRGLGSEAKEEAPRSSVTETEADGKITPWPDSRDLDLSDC

[1] = target: Muscarinic acetylcholine receptor M3 (Homo sapiens, UniProt P20309)
Muscarinic acetylcholine receptor M3, sequence (P20309 whole entry): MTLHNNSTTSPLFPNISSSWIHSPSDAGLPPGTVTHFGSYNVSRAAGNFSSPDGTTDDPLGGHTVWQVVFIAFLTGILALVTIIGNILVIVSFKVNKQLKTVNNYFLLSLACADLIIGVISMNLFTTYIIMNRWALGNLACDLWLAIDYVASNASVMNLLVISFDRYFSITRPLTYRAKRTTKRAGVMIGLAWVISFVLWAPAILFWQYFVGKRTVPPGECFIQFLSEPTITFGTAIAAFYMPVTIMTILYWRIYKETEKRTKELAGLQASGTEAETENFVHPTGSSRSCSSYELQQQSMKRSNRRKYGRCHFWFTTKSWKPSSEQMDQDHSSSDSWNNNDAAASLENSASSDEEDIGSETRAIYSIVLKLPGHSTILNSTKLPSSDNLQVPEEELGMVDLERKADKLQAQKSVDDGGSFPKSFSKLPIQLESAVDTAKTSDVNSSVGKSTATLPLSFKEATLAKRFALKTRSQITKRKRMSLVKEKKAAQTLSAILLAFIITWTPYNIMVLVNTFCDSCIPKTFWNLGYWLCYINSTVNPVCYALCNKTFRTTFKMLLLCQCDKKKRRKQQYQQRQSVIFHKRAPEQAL

D(2) dopamine receptor = D(2) dopamine receptor (Homo sapiens, UniProt P14416)
D(2) dopamine receptor, sequence (P14416 whole entry): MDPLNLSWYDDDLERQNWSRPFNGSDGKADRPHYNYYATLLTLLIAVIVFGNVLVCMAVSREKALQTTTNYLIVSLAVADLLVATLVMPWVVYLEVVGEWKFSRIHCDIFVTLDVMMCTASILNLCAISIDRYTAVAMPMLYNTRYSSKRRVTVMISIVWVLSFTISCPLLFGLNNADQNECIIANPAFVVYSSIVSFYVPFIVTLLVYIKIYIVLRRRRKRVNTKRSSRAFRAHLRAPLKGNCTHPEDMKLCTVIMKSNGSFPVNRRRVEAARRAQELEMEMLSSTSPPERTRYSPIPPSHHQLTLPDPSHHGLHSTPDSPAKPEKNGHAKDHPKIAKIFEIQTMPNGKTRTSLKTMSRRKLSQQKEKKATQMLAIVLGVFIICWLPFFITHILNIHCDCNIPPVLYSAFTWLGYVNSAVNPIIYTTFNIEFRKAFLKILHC

D(1A) dopamine receptor = D(1A) dopamine receptor (Homo sapiens, UniProt P21728)
D(1A) dopamine receptor, sequence (P21728 whole entry): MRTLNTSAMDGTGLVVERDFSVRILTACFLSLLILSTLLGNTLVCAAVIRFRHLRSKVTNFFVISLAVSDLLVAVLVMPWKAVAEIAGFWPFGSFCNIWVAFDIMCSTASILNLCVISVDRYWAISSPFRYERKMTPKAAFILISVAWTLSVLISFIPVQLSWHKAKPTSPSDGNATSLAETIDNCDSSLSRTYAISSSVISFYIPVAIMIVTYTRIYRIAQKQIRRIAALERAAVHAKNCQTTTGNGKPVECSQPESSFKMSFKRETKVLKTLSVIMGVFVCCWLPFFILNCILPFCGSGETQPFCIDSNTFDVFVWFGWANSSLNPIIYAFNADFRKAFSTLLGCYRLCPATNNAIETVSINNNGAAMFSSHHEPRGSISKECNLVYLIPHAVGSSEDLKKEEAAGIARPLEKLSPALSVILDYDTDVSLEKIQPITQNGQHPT

[2] = target: T2, Muscarinic acetylcholine receptor M2 (Homo sapiens, UniProt P08172)
T2 sequence (P08172 whole entry): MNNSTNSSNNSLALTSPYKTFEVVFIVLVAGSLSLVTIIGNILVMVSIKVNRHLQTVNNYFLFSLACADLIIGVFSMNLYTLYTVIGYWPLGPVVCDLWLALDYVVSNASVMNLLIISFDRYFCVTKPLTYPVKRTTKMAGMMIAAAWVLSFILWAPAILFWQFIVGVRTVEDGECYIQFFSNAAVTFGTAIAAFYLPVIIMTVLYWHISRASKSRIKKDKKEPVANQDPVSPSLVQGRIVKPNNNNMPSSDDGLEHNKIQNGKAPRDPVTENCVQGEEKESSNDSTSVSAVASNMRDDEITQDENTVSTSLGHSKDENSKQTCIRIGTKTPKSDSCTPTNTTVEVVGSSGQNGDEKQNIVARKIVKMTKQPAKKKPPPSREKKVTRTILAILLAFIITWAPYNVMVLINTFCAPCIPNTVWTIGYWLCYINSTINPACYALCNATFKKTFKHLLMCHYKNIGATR

[3] = target: T3, Muscarinic acetylcholine receptor M1 (Homo sapiens, UniProt P11229)
T3 sequence (P11229 whole entry): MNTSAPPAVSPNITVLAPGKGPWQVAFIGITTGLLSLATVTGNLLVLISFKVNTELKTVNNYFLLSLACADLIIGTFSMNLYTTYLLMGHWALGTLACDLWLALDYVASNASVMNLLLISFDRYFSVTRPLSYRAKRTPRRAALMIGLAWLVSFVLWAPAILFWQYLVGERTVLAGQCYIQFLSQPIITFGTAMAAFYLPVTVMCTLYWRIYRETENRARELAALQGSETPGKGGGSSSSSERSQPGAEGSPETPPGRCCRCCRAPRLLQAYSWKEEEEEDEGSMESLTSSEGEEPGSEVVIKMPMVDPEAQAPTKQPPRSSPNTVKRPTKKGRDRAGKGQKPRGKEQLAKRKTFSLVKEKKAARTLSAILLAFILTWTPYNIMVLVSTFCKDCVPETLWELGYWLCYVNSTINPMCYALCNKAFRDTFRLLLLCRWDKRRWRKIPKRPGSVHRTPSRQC

[4] = target: Histamine H2 receptor (Homo sapiens) (UniProt P25021)
Histamine H2 receptor (Homo sapiens), sequence (P25021 whole entry, looked up): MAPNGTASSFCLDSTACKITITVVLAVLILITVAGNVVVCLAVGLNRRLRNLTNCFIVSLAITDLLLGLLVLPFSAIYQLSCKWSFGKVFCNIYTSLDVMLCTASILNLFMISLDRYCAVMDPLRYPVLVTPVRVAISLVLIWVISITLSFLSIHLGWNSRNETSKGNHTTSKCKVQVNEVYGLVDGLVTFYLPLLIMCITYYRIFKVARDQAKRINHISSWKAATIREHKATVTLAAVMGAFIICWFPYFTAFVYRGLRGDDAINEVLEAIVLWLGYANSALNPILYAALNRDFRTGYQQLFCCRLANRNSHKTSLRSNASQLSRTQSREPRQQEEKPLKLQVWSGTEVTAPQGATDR

[5] = target: D(3) dopamine receptor (Homo sapiens) (UniProt P35462)
D(3) dopamine receptor (Homo sapiens), sequence (P35462 whole entry, looked up): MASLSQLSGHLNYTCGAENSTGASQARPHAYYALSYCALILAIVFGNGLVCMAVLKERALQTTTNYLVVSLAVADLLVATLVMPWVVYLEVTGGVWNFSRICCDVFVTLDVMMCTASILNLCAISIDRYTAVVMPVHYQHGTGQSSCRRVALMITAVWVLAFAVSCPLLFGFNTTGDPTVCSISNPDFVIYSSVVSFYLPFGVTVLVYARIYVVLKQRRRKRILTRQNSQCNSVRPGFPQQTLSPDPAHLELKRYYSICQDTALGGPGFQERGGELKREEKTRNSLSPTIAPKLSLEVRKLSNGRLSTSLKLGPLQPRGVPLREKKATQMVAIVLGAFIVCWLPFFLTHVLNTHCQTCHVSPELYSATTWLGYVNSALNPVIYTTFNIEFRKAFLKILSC

Adenosine receptor A2b = target: T4, Adenosine receptor A2b (Bos taurus, UniProt Q1LZD0)
T4 sequence (Q1LZD0 whole entry): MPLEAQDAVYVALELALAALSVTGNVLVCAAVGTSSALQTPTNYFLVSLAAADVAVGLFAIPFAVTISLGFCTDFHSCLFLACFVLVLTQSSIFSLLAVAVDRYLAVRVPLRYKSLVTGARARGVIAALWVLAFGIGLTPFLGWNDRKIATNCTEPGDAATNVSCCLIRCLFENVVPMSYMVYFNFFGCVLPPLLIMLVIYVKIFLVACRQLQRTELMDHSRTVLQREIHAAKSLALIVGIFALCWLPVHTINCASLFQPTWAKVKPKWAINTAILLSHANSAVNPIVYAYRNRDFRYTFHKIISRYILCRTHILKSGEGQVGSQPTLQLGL

[6] = target: T5, Muscarinic acetylcholine receptor M4 (Homo sapiens, UniProt P08173)
T5 sequence (P08173 whole entry): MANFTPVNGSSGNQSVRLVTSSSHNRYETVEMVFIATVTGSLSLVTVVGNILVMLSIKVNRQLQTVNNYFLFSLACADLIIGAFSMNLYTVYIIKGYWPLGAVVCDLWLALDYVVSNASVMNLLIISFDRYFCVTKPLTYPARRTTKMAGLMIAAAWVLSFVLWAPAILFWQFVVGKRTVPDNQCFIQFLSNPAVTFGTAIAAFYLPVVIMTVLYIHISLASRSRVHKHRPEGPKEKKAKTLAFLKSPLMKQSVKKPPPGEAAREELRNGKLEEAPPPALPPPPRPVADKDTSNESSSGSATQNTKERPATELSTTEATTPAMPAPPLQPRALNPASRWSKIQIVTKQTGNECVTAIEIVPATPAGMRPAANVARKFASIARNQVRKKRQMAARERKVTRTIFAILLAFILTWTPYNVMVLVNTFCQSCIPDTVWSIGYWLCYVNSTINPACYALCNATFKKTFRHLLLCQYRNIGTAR

Transporter = Transporter (Cavia porcellus, UniProt H0WCX4)
Transporter, sequence (H0WCX4 whole entry): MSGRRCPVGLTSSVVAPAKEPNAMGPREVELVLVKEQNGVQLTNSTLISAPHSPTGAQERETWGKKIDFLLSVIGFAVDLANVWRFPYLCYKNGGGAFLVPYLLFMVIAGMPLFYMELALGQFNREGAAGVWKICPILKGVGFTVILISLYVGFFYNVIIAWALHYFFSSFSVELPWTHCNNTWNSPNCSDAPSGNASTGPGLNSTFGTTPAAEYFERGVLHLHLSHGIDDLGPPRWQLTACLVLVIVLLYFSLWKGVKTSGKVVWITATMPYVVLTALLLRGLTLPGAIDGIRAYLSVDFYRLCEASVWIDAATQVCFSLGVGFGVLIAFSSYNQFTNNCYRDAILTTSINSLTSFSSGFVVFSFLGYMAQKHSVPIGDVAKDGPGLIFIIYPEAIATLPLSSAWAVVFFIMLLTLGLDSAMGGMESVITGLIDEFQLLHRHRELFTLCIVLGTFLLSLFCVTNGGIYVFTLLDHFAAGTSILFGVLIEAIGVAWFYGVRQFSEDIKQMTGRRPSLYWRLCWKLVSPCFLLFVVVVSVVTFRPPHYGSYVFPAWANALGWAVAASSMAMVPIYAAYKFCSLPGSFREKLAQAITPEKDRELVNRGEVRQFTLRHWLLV

[7] = target: T6, Muscarinic acetylcholine receptor M5 (Homo sapiens, UniProt P08912)
T6 sequence (P08912 whole entry): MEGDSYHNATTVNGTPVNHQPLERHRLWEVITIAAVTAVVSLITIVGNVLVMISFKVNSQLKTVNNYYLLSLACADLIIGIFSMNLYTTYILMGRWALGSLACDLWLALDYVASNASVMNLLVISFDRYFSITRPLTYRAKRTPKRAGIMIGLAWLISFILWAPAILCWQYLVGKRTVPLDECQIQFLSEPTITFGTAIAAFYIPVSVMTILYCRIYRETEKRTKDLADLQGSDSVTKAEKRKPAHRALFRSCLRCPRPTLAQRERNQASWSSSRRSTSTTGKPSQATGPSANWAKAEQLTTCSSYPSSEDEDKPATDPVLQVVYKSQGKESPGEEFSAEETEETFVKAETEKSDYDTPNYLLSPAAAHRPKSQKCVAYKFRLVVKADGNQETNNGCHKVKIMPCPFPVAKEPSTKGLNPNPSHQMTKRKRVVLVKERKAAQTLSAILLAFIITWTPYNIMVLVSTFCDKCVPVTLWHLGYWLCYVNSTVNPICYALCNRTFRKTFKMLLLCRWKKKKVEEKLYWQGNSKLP

[8] = target: Histamine H1 receptor (Homo sapiens) (UniProt P35367)
Histamine H1 receptor (Homo sapiens), sequence (P35367 whole entry, looked up): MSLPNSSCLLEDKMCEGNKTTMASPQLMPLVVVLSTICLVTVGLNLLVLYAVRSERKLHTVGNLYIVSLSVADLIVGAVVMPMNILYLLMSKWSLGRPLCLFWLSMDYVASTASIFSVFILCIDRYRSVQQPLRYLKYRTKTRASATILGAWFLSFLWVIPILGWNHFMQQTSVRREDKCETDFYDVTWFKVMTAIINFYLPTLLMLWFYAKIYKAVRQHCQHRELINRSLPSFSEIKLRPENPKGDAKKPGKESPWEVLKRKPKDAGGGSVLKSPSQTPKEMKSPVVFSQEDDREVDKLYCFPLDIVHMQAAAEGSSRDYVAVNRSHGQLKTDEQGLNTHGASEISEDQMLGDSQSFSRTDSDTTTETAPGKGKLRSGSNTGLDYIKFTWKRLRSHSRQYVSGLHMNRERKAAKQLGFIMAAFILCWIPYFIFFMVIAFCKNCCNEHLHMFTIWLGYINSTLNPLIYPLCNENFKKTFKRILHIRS

[9] = target: Histamine H3 receptor (Homo sapiens) (UniProt Q9Y5N1)
Histamine H3 receptor (Homo sapiens), sequence (Q9Y5N1 whole entry, looked up): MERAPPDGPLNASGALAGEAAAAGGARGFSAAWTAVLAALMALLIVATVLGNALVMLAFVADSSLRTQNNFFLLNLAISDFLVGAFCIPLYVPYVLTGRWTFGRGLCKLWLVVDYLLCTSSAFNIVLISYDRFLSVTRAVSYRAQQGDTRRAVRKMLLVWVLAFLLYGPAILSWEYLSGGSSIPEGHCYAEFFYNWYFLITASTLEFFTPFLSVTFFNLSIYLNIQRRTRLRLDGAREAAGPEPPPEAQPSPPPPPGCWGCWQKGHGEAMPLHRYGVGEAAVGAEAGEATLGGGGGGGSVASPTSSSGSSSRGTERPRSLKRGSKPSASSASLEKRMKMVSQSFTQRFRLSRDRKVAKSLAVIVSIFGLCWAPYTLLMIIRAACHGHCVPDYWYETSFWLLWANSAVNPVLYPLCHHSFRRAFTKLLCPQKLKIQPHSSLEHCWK

Cannabinoid receptor 1 = Cannabinoid receptor 1 (Homo sapiens, UniProt P21554)
Cannabinoid receptor 1, sequence (P21554 whole entry): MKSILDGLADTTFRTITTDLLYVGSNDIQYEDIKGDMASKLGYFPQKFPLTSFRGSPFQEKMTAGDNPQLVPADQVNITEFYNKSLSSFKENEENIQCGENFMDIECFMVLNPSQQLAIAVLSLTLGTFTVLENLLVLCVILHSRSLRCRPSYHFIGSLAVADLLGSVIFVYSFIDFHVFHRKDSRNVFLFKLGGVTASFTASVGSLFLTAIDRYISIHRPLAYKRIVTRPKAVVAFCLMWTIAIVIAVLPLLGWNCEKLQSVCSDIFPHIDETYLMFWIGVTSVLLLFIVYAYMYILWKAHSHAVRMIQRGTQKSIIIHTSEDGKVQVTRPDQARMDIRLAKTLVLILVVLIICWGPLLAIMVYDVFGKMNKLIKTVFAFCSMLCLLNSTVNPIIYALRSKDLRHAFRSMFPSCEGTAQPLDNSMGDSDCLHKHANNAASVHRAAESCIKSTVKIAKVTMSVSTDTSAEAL

Measured: IC50

CN(C)CC(c1ccc(O)cc1)C1(O)CCCCC1 (stereo unspecified) [CAS_386750-22-7]
> 10 µM: Adenosine receptor A1 | Cannabinoid receptor 2 | [1] | D(2) dopamine receptor | D(1A) dopamine receptor | [2] | [3] | [4] | [5] | Adenosine receptor A2b | [6] | Transporter | [7] | [8] | [9] | Cannabinoid receptor 1
